The numbers were not newly measured in patent US20230293541A1, “METHODS OF TREATING OPHTHALMIC CONDITIONS WITH ENHANCED PENETRATION COMPOSITIONS OF BIMATOPROST AND TIMOLOL” (Somerset Therapeutics, LLC, priority 2022, published 2023), which cites them from elsewhere.

The structures appear in SMILES notation.

For data set [1] the following is noted: patients starting on prostaglandin monotherapy.
The conditions of data set [2]: under certain conditions.
For data set [3] the following is noted: in comparison to latanoprost and travoprost.
For data set [4] the following is noted: three-month comparison, glaucoma and ocular hypertension.

With `CC(C)OC(=O)CCC/C=C\C[C@@H]1[C@@H](/C=C/[C@@H](O)COc2cccc(C(F)(F)F)c2)[C@H](O)C[C@@H]1O` [travoprost], the “rate of adjunctive medication use” value in data set [1] was 22.5%. The API stability result in data set [2] is “experiencing degradation”.
`CC(C)OC(=O)CCC/C=C\C[C@@H]1[C@@H](CC[C@@H](O)CCc2ccccc2)[C@H](O)C[C@@H]1O` [latanoprost]: the “rate of adjunctive medication use” value in data set [1] is reported as 30.2%. The API stability entry in data set [2] was “experiencing degradation”.
`CCNC(=O)CCC/C=C\C[C@@H]1[C@@H](/C=C/[C@@H](O)CCc2ccccc2)[C@H](O)C[C@@H]1O` [bimatoprost, (Z)-7-[(1R, 2R, 3R, 5S)-3,5-Dihydroxy-2-[(1E, 3S)˜3-hydroxy-5-phenyl˜1-pentenyl]cyclopentyl]˜5-N-ethylheptenamid]: in data set [1], the “rate of adjunctive medication use” value was 23.2%. Moreover, the API stability result in data set [2] is on record as “remain stable”. The corneal penetration result in data set [3] is “poor corneal penetration”. Further, in data set [4], the “mean pressures (IOP) versus latanoprost” value is on record as “lower mean pressures than latanoprost at every time point studied”.
